We go through 23 compounds from patent publication US11548870B2, “Compounds useful as inhibitors of helios protein” (Bristol-Myers Squibb Company, priority 2019, dated 2023).

SMILES strings stand for the structures. Where only a bound is given, the exact number is not on record here.

One test addresses T1, Ikaros (Homo sapiens, UniProt Q13422).
T1 construct: fluorescently labelled antibodies against Helios and Ikaros; endogenous in cells; host or cells: Jurkat cells
Nature of the test: Helios Cellular Degradation Assay, Ikaros readout (flow cytometry, Ikaros-Alexa488 antibody staining, 72 h). The class given is cell-based. Particulars: Jurkat cells, 72 h incubation, flow cytometry; for Dmax: Jurkat, read-out: Ikaros Dmax. The method in brief: (§1)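 Jurkat cells (80,000/well, RPMI+10% FBS) were exposed to compound for 72 h at 37 °C, then fixed, permeabilized and co-stained for 1 h with Ikaros-Alexa488 and Helios-PE antibodies. Intracellular protein levels were read by flow cytometry.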

In a further test the target is T2, Helios (Homo sapiens, UniProt Q96SW2+Q9UKS7).
T2 construct: fluorescently labelled antibodies against Helios and Ikaros; endogenous in cells; host or cells: Jurkat cells
T2 sequence (Q9UKS7 whole entry): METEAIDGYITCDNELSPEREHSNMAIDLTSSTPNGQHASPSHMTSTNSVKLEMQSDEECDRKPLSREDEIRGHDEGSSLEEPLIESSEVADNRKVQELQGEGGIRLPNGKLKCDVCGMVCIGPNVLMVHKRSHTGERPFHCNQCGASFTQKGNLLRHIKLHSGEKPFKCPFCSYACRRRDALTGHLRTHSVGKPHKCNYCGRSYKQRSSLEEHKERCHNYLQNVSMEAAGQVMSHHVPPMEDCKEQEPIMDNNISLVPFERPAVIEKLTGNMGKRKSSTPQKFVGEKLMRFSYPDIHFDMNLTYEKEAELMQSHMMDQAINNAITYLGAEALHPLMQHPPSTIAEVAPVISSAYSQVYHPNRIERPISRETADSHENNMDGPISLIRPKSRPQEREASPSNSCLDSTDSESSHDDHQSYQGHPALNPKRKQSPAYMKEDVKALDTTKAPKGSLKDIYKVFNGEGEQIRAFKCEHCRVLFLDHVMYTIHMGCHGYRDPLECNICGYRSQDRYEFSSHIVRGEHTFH
T2 sequence (Q96SW2 whole entry): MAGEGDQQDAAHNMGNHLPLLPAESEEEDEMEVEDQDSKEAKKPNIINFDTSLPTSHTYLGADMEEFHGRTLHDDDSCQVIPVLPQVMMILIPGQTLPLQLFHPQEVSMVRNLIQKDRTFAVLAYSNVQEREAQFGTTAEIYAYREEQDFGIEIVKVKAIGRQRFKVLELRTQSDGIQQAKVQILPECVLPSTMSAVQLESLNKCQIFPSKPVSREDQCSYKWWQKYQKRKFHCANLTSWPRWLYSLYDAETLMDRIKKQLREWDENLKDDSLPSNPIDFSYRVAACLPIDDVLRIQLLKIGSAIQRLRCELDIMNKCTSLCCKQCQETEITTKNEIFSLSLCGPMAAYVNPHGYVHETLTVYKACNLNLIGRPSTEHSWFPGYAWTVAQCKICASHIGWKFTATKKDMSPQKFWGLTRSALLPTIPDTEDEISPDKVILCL
T2 sequence (Q16531 whole entry partner): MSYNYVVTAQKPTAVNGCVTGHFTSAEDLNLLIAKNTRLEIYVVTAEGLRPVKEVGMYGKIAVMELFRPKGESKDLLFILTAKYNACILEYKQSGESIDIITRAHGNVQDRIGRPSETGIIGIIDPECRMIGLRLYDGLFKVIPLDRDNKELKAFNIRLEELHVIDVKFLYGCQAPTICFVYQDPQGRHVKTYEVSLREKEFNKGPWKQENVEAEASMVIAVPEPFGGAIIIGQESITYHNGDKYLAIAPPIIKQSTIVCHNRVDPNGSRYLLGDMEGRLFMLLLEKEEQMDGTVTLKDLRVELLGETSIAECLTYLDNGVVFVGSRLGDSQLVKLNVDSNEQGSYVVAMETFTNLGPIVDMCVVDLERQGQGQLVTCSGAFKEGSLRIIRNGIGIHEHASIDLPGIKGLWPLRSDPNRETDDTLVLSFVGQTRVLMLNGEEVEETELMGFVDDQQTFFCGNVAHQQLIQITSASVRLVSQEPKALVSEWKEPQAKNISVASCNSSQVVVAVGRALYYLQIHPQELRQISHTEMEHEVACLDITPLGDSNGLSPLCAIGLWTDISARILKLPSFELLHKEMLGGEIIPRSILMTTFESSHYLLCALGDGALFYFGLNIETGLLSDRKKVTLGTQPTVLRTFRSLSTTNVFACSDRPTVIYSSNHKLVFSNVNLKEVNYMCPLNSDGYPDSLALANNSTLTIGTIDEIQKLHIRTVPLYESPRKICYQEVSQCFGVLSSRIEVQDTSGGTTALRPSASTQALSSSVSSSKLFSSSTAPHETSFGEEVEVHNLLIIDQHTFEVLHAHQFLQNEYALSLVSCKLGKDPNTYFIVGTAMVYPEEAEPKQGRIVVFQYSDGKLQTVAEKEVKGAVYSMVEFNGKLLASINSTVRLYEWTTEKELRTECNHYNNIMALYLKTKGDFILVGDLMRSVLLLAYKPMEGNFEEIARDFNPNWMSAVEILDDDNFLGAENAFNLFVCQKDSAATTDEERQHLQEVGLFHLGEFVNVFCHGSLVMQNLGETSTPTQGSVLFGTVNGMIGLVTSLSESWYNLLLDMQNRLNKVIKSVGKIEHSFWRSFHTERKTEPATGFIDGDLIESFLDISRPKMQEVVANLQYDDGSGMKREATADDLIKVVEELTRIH
Nature of the test: Helios Cellular Degradation Assay (flow cytometry, Helios-PE antibody staining, 72 h). Format: cell-based. Particulars: Jurkat cells, 72 h incubation, flow cytometry; for Dmax: Jurkat, read-out: Helios Dmax. The method, boiled down: as §1

T1 sequence (Q96SW2 whole entry partner): as the sequence (Q96SW2 whole entry) above
T1 sequence (Q16531 whole entry partner): as the sequence (Q16531 whole entry partner) above
T1 sequence (Q13422 whole entry): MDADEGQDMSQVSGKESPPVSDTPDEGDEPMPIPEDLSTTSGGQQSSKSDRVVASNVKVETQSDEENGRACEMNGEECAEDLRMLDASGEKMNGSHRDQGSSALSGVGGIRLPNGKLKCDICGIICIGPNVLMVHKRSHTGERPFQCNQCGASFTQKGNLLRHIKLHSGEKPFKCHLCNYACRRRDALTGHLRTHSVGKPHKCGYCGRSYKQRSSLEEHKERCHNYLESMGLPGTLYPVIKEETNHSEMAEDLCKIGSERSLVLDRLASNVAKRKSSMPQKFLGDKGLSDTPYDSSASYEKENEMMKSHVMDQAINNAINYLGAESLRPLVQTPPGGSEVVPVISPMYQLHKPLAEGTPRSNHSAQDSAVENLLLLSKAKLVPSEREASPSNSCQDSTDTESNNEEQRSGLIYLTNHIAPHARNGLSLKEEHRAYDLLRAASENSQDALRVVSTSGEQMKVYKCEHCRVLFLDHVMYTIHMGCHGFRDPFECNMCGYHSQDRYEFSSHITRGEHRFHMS

Turning to `CN(Cc1ccnc(-c2ccc3c(c2)CN(C2CCC(=O)NC2=O)C3=O)c1)Cc1cccc2[nH]ncc12` (stereo not shown) [Example 169, 3-(5-(4-((((1H-indazol-4-yl)methyl)(methyl)amino)methyl)pyridin-2-yl)-1-oxoisoindolin-2-yl)piperidine-2,6-dione], the DC50 on Ikaros is greater than 10000 nM; at Helios, 195 nM. Besides, the Dmax is 16% on Ikaros and 79% on Helios.
Take `CN1CCC(N(C)Cc2ccnc(-c3ccc4c(c3)CN(C3CCC(=O)NC3=O)C4=O)c2)CC1` (stereo not shown) [Example 170, 3-(5-(4-((methyl (1-methylpiperidin-4-yl)amino)methyl)pyridin-2-yl)-1-oxoisoindolin-2-yl)piperidine-2,6-dione]: at Ikaros, the DC50 was greater than 10000 nM and the maximal degradation (Dmax) amounted to 2%. Besides, at Helios, the DC50 was greater than 10000 nM and the Dmax amounted to 22%.
On to `CN(CCc1ccccc1)Cc1ccnc(-c2ccc3c(c2)CN(C2CCC(=O)NC2=O)C3=O)c1` (stereo not shown) [Example 171, 3-(5-(4-((methyl(phenethyl)amino)methyl)pyridin-2-yl)-1-oxoisoindolin-2-yl)piperidine-2,6-dione], for which the DC50 was greater than 10000 nM on Ikaros and 317 nM at Helios. For the same compound, the Dmax was 4% on Ikaros and 80% at Helios.
Taken in the same sequence, the figures for `CN(Cc1ccoc1)Cc1ccnc(-c2ccc3c(c2)CN(C2CCC(=O)NC2=O)C3=O)c1` (stereo not shown) [Example 172, 3-(5-(4-(((furan-3-ylmethyl)(methyl)amino)methyl)pyridin-2-yl)-1-oxoisoindolin-2-yl)piperidine-2,6-dione] were greater than 10000 nM, 75 nM, 12% and 90%.
Taken in the same sequence, the figures for `CN(Cc1ccnc(-c2ccc3c(c2)CN(C2CCC(=O)NC2=O)C3=O)c1)CC1CC1` (stereo not shown) [Example 173, 3-(5-(4-(((cyclopropylmethyl)(methyl)amino)methyl)pyridin-2-yl)-1-oxoisoindolin-2-yl) piperidine-2,6-dione] were greater than 10000 nM, 73 nM, 0% and 86%.
For `CN(Cc1ccnc(-c2ccc3c(c2)CN(C2CCC(=O)NC2=O)C3=O)c1)Cc1cncn1C` (stereo not shown) [Example 174, 3-(5-(4-((methyl((1-methyl-1H-imidazol-5-yl)methyl)amino)methyl)pyridin-2-yl)-1-oxoisoindolin-2-yl)piperidine-2,6-dione], in that order: greater than 10000 nM, 5870 nM, 20% and 54%.
With `CN(Cc1ccnc(-c2ccc3c(c2)CN(C2CCC(=O)NC2=O)C3=O)c1)CC1CCCC1` (stereo not shown) [Example 175, 3-(5-(4-(((cyclopentylmethyl)(methyl)amino)methyl)pyridin-2-yl)-1-oxoisoindolin-2-yl) piperidine-2,6-dione], at Ikaros, the DC50 is greater than 10000 nM and the Dmax was 7%. Further, on Helios, the 50% degradation concentration (DC50) was 78 nM and the Dmax amounted to 78%.
For `CN(Cc1ccnc(-c2ccc3c(c2)CN(C2CCC(=O)NC2=O)C3=O)c1)Cc1nccs1` (stereo not shown) [Example 176, 3-(5-(4-((methyl(thiazol-2-ylmethyl)amino)methyl)pyridin-2-yl)-1-oxoisoindolin-2-yl)piperidine-2,6-dione], in that order: greater than 10000 nM, 30%, 1120 nM and 65%.
Taken in the same sequence, the figures for `CN(Cc1ccc(-n2ccnc2)cc1)Cc1ccnc(-c2ccc3c(c2)CN(C2CCC(=O)NC2=O)C3=O)c1` (stereo not shown) [Example 177, 3-(5-(4-(((4-(1H-imidazol-1-yl)benzyl)(methyl)amino)methyl)pyridin-2-yl)-1-oxoisoindolin-2-yl)piperidine-2,6-dione] were greater than 10000 nM, 12%, greater than 10000 nM and 43%.
For `CC(C)CN(C)Cc1ccnc(-c2ccc3c(c2)CN(C2CCC(=O)NC2=O)C3=O)c1` (stereo not shown) [Example 179, 3-(5-(4-((isobutyl(methyl)amino)methyl)pyridin-2-yl)-1-oxoisoindolin-2-yl)piperidine-2,6-dione], in that order: greater than 10000 nM, 4%, 212 nM and 78%.
`CC(C)CCN(C)Cc1ccnc(-c2ccc3c(c2)CN(C2CCC(=O)NC2=O)C3=O)c1` (stereo not shown) [Example 180, 3-(5-(4-((isopentyl(methyl)amino)methyl)pyridin-2-yl)-1-oxoisoindolin-2-yl)piperidine-2,6-dione]: the values for the DC50 at Ikaros and at Helios were greater than 10000 nM and 352 nM, respectively. For the same compound, the Dmax on Ikaros was 13%; on Helios, 87%.
Regarding `CC(CO)N(C)Cc1ccnc(-c2ccc3c(c2)CN(C2CCC(=O)NC2=O)C3=O)c1` (stereo not shown) [Example 181, 3-(5-(4-(((1-hydroxypropan-2-yl)(methyl)amino)methyl)pyridin-2-yl)-1-oxoisoindolin-2-yl) piperidine-2,6-dione], the half-maximal degradation concentration (DC50) on Ikaros was greater than 10000 nM; at Helios, 499 nM. Also, the maximal degradation (Dmax) on Ikaros came to 10%; on Helios, 83%.
Taken in the same sequence, the figures for `CN(Cc1ccnc(-c2ccc3c(c2)CN(C2CCC(=O)NC2=O)C3=O)c1)CC1CCOC1` (stereo not shown) [Example 182, 3-(5-(4-((methyl((tetrahydrofuran-3-yl)methyl)amino)methyl)pyridin-2-yl)-1-oxoisoindolin-2-yl)piperidine-2,6-dione] were greater than 10000 nM, 316 nM, 23% and 79%.
Taken in the same sequence, the figures for `CN(Cc1ccnc(-c2ccc3c(c2)CN(C2CCC(=O)NC2=O)C3=O)c1)Cc1cnc2ccccc2n1` (stereo not shown) [Example 183, 3-(5-(4-((methyl (quinoxalin-2-ylmethyl)amino)methyl)pyridin-2-yl)-1-oxoisoindolin-2-yl)piperidine-2,6-dione] were greater than 10000 nM, 167 nM, 10% and 76%.
For `CN(CCC(F)(F)F)Cc1ccnc(-c2ccc3c(c2)CN(C2CCC(=O)NC2=O)C3=O)c1` (stereo not shown) [Example 184, 3-(5-(4-((methyl(3,3,3-trifluoropropyl)amino)methyl)pyridin-2-yl)-1-oxoisoindolin-2-yl)piperidine-2,6-dione], in that order: greater than 10000 nM, 6050 nM, 14% and 54%.
`CC(CCO)N(C)Cc1ccnc(-c2ccc3c(c2)CN(C2CCC(=O)NC2=O)C3=O)c1` (stereo not shown) [Example 185, 3-(5-(4-(((4-hydroxybutan-2-yl)(methyl)amino)methyl)pyridin-2-yl)-1-oxoisoindolin-2-yl)piperidine-2,6-dione]: on Ikaros, the half-maximal degradation concentration (DC50) is greater than 10000 nM and the Dmax was 2%. At Helios, the DC50 amounted to 421 nM and the Dmax was 62%.
Taken in the same sequence, the figures for `O=C1CCC(N2Cc3cc(-c4cc(CN5CC(c6ccccc6)C5)c(Cl)cn4)ccc3C2=O)C(=O)N1` (stereo not shown) [Example 186, 3-(5-(5-chloro-4-((3-phenylazetidin-1-yl)methyl)pyridin-2-yl)-1-oxoisoindolin-2-yl)piperidine-2,6-dione] were greater than 10000 nM, 8%, 230 nM and 62%.
For the compound `O=C1CCC(N2Cc3cc(-c4cc(CN5CCC5c5ccccc5)c(Cl)cn4)ccc3C2=O)C(=O)N1` (stereo not shown) [Example 187, 3-(5-(5-chloro-4-((2-phenylazetidin-1-yl)methyl)pyridin-2-yl)-1-oxoisoindolin-2-yl)piperidine-2,6-dione], at Ikaros, the DC50 is greater than 10000 nM and the Dmax amounted to 6%. Further, at Helios, half-maximal degradation (DC50) was put at 24 nM and the Dmax is 84%.
In the case of `O=C1CCC(N2Cc3cc(-c4cc(CN5CC(c6ccccc6)C5)c(F)cn4)ccc3C2=O)C(=O)N1` (stereo not shown) [Example 188, 3-(5-(5-fluoro-4-((3-phenylazetidin-1-yl)methyl)pyridin-2-yl)-1-oxoisoindolin-2-yl) piperidine-2,6-dione], the Dmax on Ikaros is 16%. Also, on Helios, the DC50 was 27 nM and the maximal degradation (Dmax) was 76%.
On to `O=C1CCC(N2Cc3cc(-c4cc(CN5CCC5c5ccccc5)c(F)cn4)ccc3C2=O)C(=O)N1` (stereo not shown) [Example 189, 3-(5-(5-fluoro-4-((2-phenylazetidin-1-yl)methyl)pyridin-2-yl)-1-oxoisoindolin-2-yl)piperidine-2,6-dione], for which, at Ikaros, the DC50 was greater than 10000 nM and the Dmax worked out at 16%. Also, on Helios, the DC50 was determined as 11 nM and the Dmax was determined as 80%.
For the compound `O=C1CCC(N2Cc3cc(-c4cc(CN5CC(c6cccnc6)C5)c(F)cn4)ccc3C2=O)C(=O)N1` (stereo not shown) [Example 190, 3-(5-(5-fluoro-4-((3-(pyridin-3-yl)azetidin-1-yl)methyl)pyridin-2-yl)-1-oxoisoindolin-2-yl) piperidine-2,6-dione], at Ikaros, the half-maximal degradation concentration (DC50) is greater than 10000 nM and the maximal degradation (Dmax) is 16%. Further, at Helios, it took 76 nM to reach half-maximal degradation (DC50) and the Dmax came out at 71%.
For `O=C1CCC(N2Cc3cc(-c4nccc(CN5CC(c6ccccc6)C5)c4F)ccc3C2=O)C(=O)N1` (stereo not shown) [Example 191, 3-(5-(3-fluoro-4-((3-phenylazetidin-1-yl)methyl)pyridin-2-yl)-1-oxoisoindolin-2-yl) piperidine-2,6-dione], at Ikaros, the half-maximal degradation concentration (DC50) is greater than 10000 nM and the Dmax came to 3%. In addition, on Helios, the DC50 is 3200 nM and the Dmax worked out at 52%.
For `O=C1CCC(N2Cc3cc(-c4nccc(CN5CC(c6cccnc6)C5)c4F)ccc3C2=O)C(=O)N1` (stereo not shown) [Example 192, 3-(5-(3-fluoro-4-((3-(pyridin-3-yl)azetidin-1-yl)methyl)pyridin-2-yl)-1-oxoisoindolin-2-yl)piperidine-2,6-dione], in that order: greater than 10000 nM, 16%, greater than 10000 nM and 41%.
